Molecular target: T1, SIRT1 (Homo sapiens, UniProt Q96EB6)
T1 sequence (Q96EB6 1-747): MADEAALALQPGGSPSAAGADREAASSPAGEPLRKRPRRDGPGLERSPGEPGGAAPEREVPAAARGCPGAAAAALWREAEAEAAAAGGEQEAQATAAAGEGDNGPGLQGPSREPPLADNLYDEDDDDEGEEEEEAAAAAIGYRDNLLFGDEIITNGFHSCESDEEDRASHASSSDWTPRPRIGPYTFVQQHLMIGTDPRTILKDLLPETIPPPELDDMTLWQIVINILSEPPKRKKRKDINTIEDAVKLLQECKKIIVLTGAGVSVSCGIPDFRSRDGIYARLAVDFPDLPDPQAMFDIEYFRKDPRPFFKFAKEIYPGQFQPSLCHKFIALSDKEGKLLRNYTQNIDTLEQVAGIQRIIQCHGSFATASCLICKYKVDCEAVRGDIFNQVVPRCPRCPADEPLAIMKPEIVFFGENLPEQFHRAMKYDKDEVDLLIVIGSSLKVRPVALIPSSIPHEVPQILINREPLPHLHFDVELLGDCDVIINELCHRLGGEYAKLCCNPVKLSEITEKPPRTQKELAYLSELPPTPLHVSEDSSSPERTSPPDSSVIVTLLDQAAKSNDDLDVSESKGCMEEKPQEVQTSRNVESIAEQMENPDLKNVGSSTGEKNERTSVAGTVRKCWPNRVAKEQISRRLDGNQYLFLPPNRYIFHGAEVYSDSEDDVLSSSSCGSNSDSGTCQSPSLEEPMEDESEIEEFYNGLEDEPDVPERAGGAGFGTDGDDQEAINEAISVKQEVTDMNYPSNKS
Test: Mass spectrometry based assay to identify modulators of SIRT1 activity (deacetylation of p53-based acetylated peptide)
Type: biochemical
Details: 10 nM SIRT1, 0.5 μM peptide substrate, 120 μM βNAD+, 25 minutes at 25° C.; for EC1.5 μM: SIRT1 activation

Structure (SMILES) | % Fold Act. (percent maximum fold activation) | EC1.5 μM
O=C(Nc1ccccn1)c1cccc2c(=O)[nH]c(-c3ccccc3C(F)(F)F)nc12 [Compound 321] | A (Fold activation>200%) | B (EC1.5 1-25 μM)
Cn1c(-c2ncccn2)nc2c(NC(=O)c3cnccn3)cccc2c1=O [Compound 282] | B (Fold Activation<200%) | C (EC1.5>25 μM)
Cn1c(-c2cccc(C(F)F)c2)nc2c(NC(=O)c3cnccn3)cccc2c1=O [Compound 310] | A (Fold activation>200%) | A (EC1.5<1.0 μM)
O=C(Nc1cccc2c(=O)cc(-c3cccc(C(F)(F)F)c3)[nH]c12)c1ccns1 [Compound 411] | A (Fold activation>200%) | A (EC1.5<1.0 μM)
O=C(Nc1cccc2c(=O)cc(-c3cccc(C(F)(F)F)c3)[nH]c12)c1cncnc1 [Compound 421] | A (Fold activation>200%) | B (EC1.5 1-25 μM)
Cn1c(-c2cccc(C(F)(F)F)c2)nc2c(NC(=O)c3cccnc3OCC(O)CO)cccc2c1=O (centres unmarked) [Compound 334] | A (Fold activation>200%) | B (EC1.5 1-25 μM)
Cn1c(-c2cccc(C(F)(F)F)c2)nc2c(NS(=O)(=O)c3cccnc3)cccc2c1=O [Compound 361] | B (Fold Activation<200%) | C (EC1.5>25 μM)
Cn1c(-c2cccc(C(F)(F)F)c2)nc2c(NC(=O)c3cscn3)cccc2c1=O [Compound 201] | B (Fold Activation<200%) | A (EC1.5<1.0 μM)
O=C(Nc1cccc2c(=O)cc(-c3cccc(C(F)(F)F)c3)[nH]c12)c1ccncn1 [Compound 418] | A (Fold activation>200%) | A (EC1.5<1.0 μM)
Cn1ccc(-c2nc3c(C(=O)Nc4ccccn4)cccc3c(=O)n2C)n1 [Compound 228] | B (Fold Activation<200%) | B (EC1.5 1-25 μM)
Cn1ccnc1-c1nc2c(NC(=O)c3cnccn3)cccc2c(=O)n1C [Compound 289] | B (Fold Activation<200%) | C (EC1.5>25 μM)
O=C(Nc1nccs1)c1cccc2c(=O)cc(-c3cccc(Cl)c3)[nH]c12 [Compound 433] | A (Fold activation>200%) | A (EC1.5<1.0 μM)
O=C(Nc1nccs1)c1cccc2c(=O)cc(-c3cccc(OC(F)(F)F)c3)[nH]c12 [Compound 429] | A (Fold activation>200%) | A (EC1.5<1.0 μM)
Cn1c(-c2cccc(C(F)(F)F)c2)nc2c(NC(=O)c3cccc(N4CCCC4)c3)cccc2c1=O [Compound 337] | B (Fold Activation<200%) | C (EC1.5>25 μM)
O=C(Nc1cccc2c(=O)[nH]c(-c3ccccc3C(F)(F)F)nc12)c1cnccn1 [Compound 317] | A (Fold activation>200%) | A (EC1.5<1.0 μM)
Cc1cc(NC(=O)c2cccc3c(=O)cc(-c4cccc(C(F)(F)F)c4)[nH]c23)on1 [Compound 406] | A (Fold activation>200%) | A (EC1.5<1.0 μM)

Structure (SMILES) | % Fold Act. (percent maximum fold activation) | EC1.5 μM
Cn1c(-c2cccc(C(F)(F)F)c2)nc2c(C(=O)Nc3cnccn3)cccc2c1=O [Compound 219] | A (Fold activation>200%) | A (EC1.5<1.0 μM)
Cn1c(-c2cnccn2)nc2c(NC(=O)c3cnccn3)cccc2c1=O [Compound 281] | B (Fold Activation<200%) | C (EC1.5>25 μM)
Cn1cncc1-c1nc2c(NC(=O)c3cnccn3)cccc2c(=O)n1C [Compound 285] | B (Fold Activation<200%) | B (EC1.5 1-25 μM)
Cn1cc(-c2nc3c(C(=O)Nc4ccccn4)cccc3c(=O)n2C)cn1 [Compound 263] | B (Fold Activation<200%) | C (EC1.5>25 μM)
Cn1c(-c2cccc(C(F)(F)F)c2)nc2c(NC(=O)C3CCC(=O)N3)cccc2c1=O (centres unmarked) [Compound 339, N-(3-methyl-4-oxo-2-(3-(trifluoromethyl)phenyl)-3,4-dihydroquinazolin-8-yl)-5-oxopyrrolidine-2-carboxamide] | B (Fold Activation<200%) | C (EC1.5>25 μM)
O=C(Nc1nccs1)c1cccc2c(=O)cc(-c3ccccc3OC(F)F)[nH]c12 [Compound 436] | A (Fold activation>200%) | A (EC1.5<1.0 μM)
Cn1cncc1-c1nc2c(C(=O)Nc3ccccn3)cccc2c(=O)n1C [Compound 262] | B (Fold Activation<200%) | C (EC1.5>25 μM)
CN1C(=O)CCC1C(=O)Nc1cccc2c(=O)n(C)c(-c3cccc(C(F)(F)F)c3)nc12 (centres unmarked) [Compound 340] | B (Fold Activation<200%) | C (EC1.5>25 μM)
Cn1c(-c2ccc(N3CCOCC3)cc2)nc2c(C(=O)Nc3ccccn3)cccc2c1=O [Compound 217] | A (Fold activation>200%) | B (EC1.5 1-25 μM)
Cn1c(-c2ccc(S(C)(=O)=O)cc2)nc2c(C(=O)Nc3ccccn3)cccc2c1=O [Compound 215] | B (Fold Activation<200%) | C (EC1.5>25 μM)
Cn1c(-c2cccc(C(F)(F)F)c2)nc2c(C(=O)Nc3ccncc3)cccc2c1=O [Compound 266] | A (Fold activation>200%) | B (EC1.5 1-25 μM)
CCc1nnc(NC(=O)c2cccc3c(=O)n(C)c(-c4cccc(C(F)(F)F)c4)nc23)s1 [Compound 294] | A (Fold activation>200%) | A (EC1.5<1.0 μM)
Cn1c(-c2ccc(C(F)(F)F)cc2)nc2c(NC(=O)c3cnccn3)cccc2c1=O [Compound 251] | B (Fold Activation<200%) | B (EC1.5 1-25 μM)
Cn1c(-c2cscn2)nc2c(C(=O)Nc3ccccn3)cccc2c1=O [Compound 225] | B (Fold Activation<200%) | C (EC1.5>25 μM)
Cn1cncc1C(=O)Nc1cccc2c(=O)n(C)c(-c3cccc(C(F)(F)F)c3)nc12 [Compound 236] | A (Fold activation>200%) | B (EC1.5 1-25 μM)
